We go through 33 compounds from patent US11253594B2, “Drug combinations for protecting against neuronal cell death” (UNIVERSITY OF PITTSBURGH-OF THE COMMONWEALTH SYSTEM OF …, priority 2017, dated 2022).

Counter-ions that a name gives are not always drawn.

Series [1] concerns STHdh^Q111 cells. Description: 384-well PI (propidium iodide) assay, protection from mHTT induced cell death. The conditions noted are these: compound titrations, serum deprived STHdh^Q111 cells. Format: cell-based, mouse. As to the method: The well-established STHdh^Q111 cell model for HD was employed to identify compounds that can protect neuronal cells from mHTT-dependent cell death. […] The propidium iodide (PI) readout enables an unbiased assessment of cell death by measuring an irreversible step that is common to all cytotoxic mechanisms.
The stress conditions for testing compounds involved incubation of the cells in serum-free medium at 37° C. and 5% CO2.
Prior to compound treatment, medium was removed and the cells washed once with PBS (pH=7.4) after which 45 μl of complete medium was added. Compounds in 5 μl complete medium were added to cells. […] Compounds in serum free medium (5 μl) were added and cells were incubated at 37° C. and 5% CO2.
Image analysis was carried out using the Multiwavelength Cell Scoring application in the MetaXpress software. The nuclear compartment was identified in Ch1 with a threshold intensity of 2,000 above background and the Texas Red compartment was identified in Ch2 with a threshold intensity of 20,000 above background.
For the analyses presented here the Percent Recovery was calculated from the Percent PI positive cells by:
[formula] where positive controls are the STHdh^Q7 cells, and negative controls are the STHdh^Q111 cells treated with DMSO
The LOPAC library was screened in the 384-well PI assay at 30, 10, and 3 μM.

Series [2] deals with STHdh^Q111 cells. Format: cell-based. Conditions: for reduction in the level of protection compared to compound alone: co-incubation with 10 μM H89; for toxicity / protection with or of the PKA inhibitor: STHdh^Q111 cells, PI assay conditions.
The test system of series [3] is PKA phosphorylated at threonine 197 (pPKA) in STHdh^Q111 cells. Briefly: PKA activation assay (pPKA, high content analysis). The series is classed as cell-based, mouse. Conditions: 24 h serum free conditions. As to the method: The pPKA levels were examined at 24 hours after serum free conditions since this was the condition where the protection of the compounds was measured.
Cells were treated as described for testing in the 384-well PI assay. […] Plates were blocked with 3% BSA in PBS and were incubated with rabbit anti-PKA (αβγ catalytic subunit; EP2606Y; phospho-T197, abcam, Cambridge Mass.) mAb overnight at 4° C. […] Image analysis was carried out using the Multiwavelength Translocation application in the MetaExpress software. The nuclear compartment was identified in Ch1 with a threshold intensity of 5,000 above background (the nuclear mask). The nuclear mask was eroded 1 μm to create the Inner region mask in Ch2. […] The cytoplasmic pKA was measured in a […] ring around the nuclear mask.

The test system of series [4] is cAMP levels in STHdh^Q111 cells. Description: cAMP Enzyme Immunoassay.
In series [5] the target is PKA (Homo sapiens, UniProt P17612). The conditions noted are these: cited from earlier work.
Series [6] concerns pCREB in the nucleus of STHdh^Q111 cells. Description: Nuclear pCREB high content analysis (surrogate marker for PKA activity). The series is classed as cell-based, mouse. The conditions noted are these: 10 μM H89 co-incubated with protective compounds. An excerpt: The concentrations used were chosen to be on plateau of their respective activity curves (see FIG. 3). […] Analysis is from triplicate samples run in four independent experiments (Error bars are +/−SE). T-test was used to assess changes in the percent recovery levels relative to the STHdh^Q111 cells treated with compound without H89. […] Analysis was from triplicate samples run in four independent experiments (Error bars are +/−SE). T-test was used to assess changes in the pCREB intensity relative to the STHdhQ111 cells treated with compound without H89.
H89 has been used extensively in the literature as a selective and potent inhibitor of PKA. If the protection from cell death by these compounds involved activation of PKA, then the addition of an inhibitor of PKA would be expected to reverse the protective effects of the compounds. […] Since the primary canonical mechanism of sodium nitroprusside is activation of PKG, and given that H89 is ˜10-fold selective for PKA over PKG, the absence of a marked effect with sodium nitroprusside is not unexpected. […] To confirm inhibition of PKA activity by H89 under the conditions of the PI assay, the levels of nuclear pCREB were measured using high content analysis. Consistent with the heterogeneity seen in the response of the STHdh^Q111 cells to protection by the compounds, a heterogeneous distribution of pCREB levels was also detected. […]

Series [7] concerns cells expressing mHTT.

Regarding `C[C@]12C=CC(=O)C=C1CC[C@H]1[C@@H]3C[C@@H](O)[C@](O)(C(=O)CO)[C@@]3(C)C[C@H](O)[C@@]12F` [Triamcinolone], in series [1], the “neuroprotective activity in the PI assay” value is “confirmed neuroprotective activity”.

For the compound `O=c1[nH]c2ccccc2n1CCCN1CCC(n2c(=O)[nH]c3cc(Cl)ccc32)CC1` [Domperidone], the “reduction in the level of protection compared to compound alone” value (shortened to “reduction in the level of protection”) in series [2] is given as 56%. Further, in series [1], the “neuroprotective activity in the PI assay” value is recorded as “confirmed neuroprotective activity”.

`O=C(OCCN1CCCCC1)c1c[nH]c2ccccc12` [SB 203186]: in series [1], the “neuroprotective activity in the PI assay” value is listed as “confirmed neuroprotective activity”.

Take `N.N.N.N.N.N.N.N.N.N.N.N.N.N.[Cl-].[Cl-].[Cl-].[Cl-].[Cl-].[Cl-].[O-2].[O-2].[Ru+3].[Ru+3].[Ru+4]` [Ruthenium red]: in series [1], the “neuroprotective activity in the PI assay” value is listed as “confirmed neuroprotective activity”.

Turning to `Cc1c(C)c2c(c(C)c1O)CCC(C)(CN1CCN(c3cc(N4CCCC4)nc(N4CCCC4)n3)CC1)O2.Cl.Cl` (centres unmarked) [U-83836 dihydrochloride], the “neuroprotective activity in the PI assay” value in series [1] is “confirmed neuroprotective activity”.

Turning to `C/C=C1\C(=O)C[C@H]2[C@@H]3CCC4=CC(=O)CC[C@]4(C)[C@H]3CC[C@]12C` [(Z)-Gugglesterone], in series [1], the “neuroprotective activity in the PI assay” value was “confirmed neuroprotective activity”.

Take `C[C@H]1C[C@H]2[C@@H]3CCC4=CC(=O)C=C[C@]4(C)[C@@]3(Cl)[C@@H](O)C[C@]2(C)[C@@]1(O)C(=O)CO` [Beclomethasone]: in series [1], the “neuroprotective activity in the PI assay” value is “confirmed neuroprotective activity”.

For `CN1[C@@H]2CC[C@H]1C[C@@H](OC(c1ccccc1)c1ccccc1)C2` [Benztropine mesylate], the “toxicity / protection with or of the PKA inhibitor” value in series [2] was “increased toxicity”. Besides, in series [1], the “neuroprotective activity in the PI assay” value is given as “confirmed neuroprotective activity”. In series [3], the “cytoplasmic pPKA, concentration response” value is given as “concentration-dependent increase”.

For the compound `CN1CCC(=C2c3ccccc3C=Cc3ccccc32)CC1` [Cyproheptadine hydrochloride], the “neuroprotective activity in the PI assay” value in series [1] was “confirmed neuroprotective activity”.

For `Cc1ccc(/C(=C\CN2CCCC2)c2ccccn2)cc1` [Triprolidine hydrochloride], the “neuroprotective activity in the PI assay” value in series [1] was “confirmed neuroprotective activity”.

With `CCN[C@H]1CN(CCCOC)S(=O)(=O)c2sc(S(N)(=O)=O)cc21` [Brinzolamide], the “neuroprotective activity in the PI assay” value in series [1] was “did not protect”.

With `O=C(CCCCCCC(=O)Nc1ccccc1)NO` [Vorinostat], the “neuroprotective activity in the PI assay” value in series [1] is given as “confirmed neuroprotective activity”.

`Cc1c(OCC(F)(F)F)ccnc1C[S+]([O-])c1nc2ccccc2[nH]1` (centres unmarked) [Lansoprazole]: the “neuroprotective activity in the PI assay” value in series [1] is “confirmed neuroprotective activity”.

For the compound `CCN[C@H]1C[C@H](C)S(=O)(=O)c2sc(S(N)(=O)=O)cc21` [Dorzolamide], the “neuroprotective activity in the PI assay” value in series [1] is listed as “did not protect”.

`C=C[C@@]1(C)CC(=O)[C@]2(O)[C@@]3(C)[C@@H](O)CCC(C)(C)[C@@H]3[C@H](O)[C@H](OC(C)=O)[C@@]2(C)O1` [forskolin]: the “increase in cAMP over the DMSO control” value in series [4] (15 minutes after compound treatment in the presence of serum) worked out at 250 fold.

With m-Iodobenzylguanidine hemisulfate, in series [1], the “neuroprotective activity in the PI assay” value is on record as “confirmed neuroprotective activity”.

With `O=S(=O)(NCCNC/C=C/c1ccc(Br)cc1)c1cccc2cnccc12` [Combination H89], the “toxicity / protection with or of the PKA inhibitor” value in series [2] is given as “no significant protection or toxicity”. Further, the “selectivity for PKA over PKG” value in series [5] is approximately 10 fold. In series [6], the “levels of nuclear pCREB” value is recorded as “decreased”.

For the compound `CCOC(=O)C1=C[C@]2(CC)CCCN3CCc4c(n1c1ccccc41)[C@@H]32` [Vinpocetine], in series [1], the “neuroprotective activity in the PI assay” value is reported as “confirmed neuroprotective activity”.

In the case of Tetradecylthioacetic acid, the “neuroprotective activity in the PI assay” value in series [1] is given as “confirmed neuroprotective activity”.

Consider `CCC(NC(C)C)C(O)c1ccc(O)c(O)c1` (centres unmarked) [Isotharine mesylate], for which the “reduction in the level of protection” value in series [2] was 34%. The “neuroprotective activity in the PI assay” value in series [1] is given as “confirmed neuroprotective activity”. In addition, in series [4] (15 and 30 minutes, t-test vs DMSO), the “statistical significance of change in cAMP levels” value is recorded as “statistically significant increase”. For the same compound, the “cytoplasmic pPKA, concentration response” value in series [3] was “concentration-dependent increase”.

With `C[C@]12C=CC(=O)C=C1CC[C@@H]1[C@@H]2[C@@H](O)C[C@@]2(C)[C@H]1CC[C@]2(O)C(=O)CO` [Prednisolone], the “neuroprotective activity in the PI assay” value in series [1] is “confirmed neuroprotective activity”.

Regarding `CN1CCN(C2=Nc3ccccc3Oc3ccc(Cl)cc32)CC1` [Loxapine succinate], the “reduction in the level of protection” value in series [2] was determined as 52%. Besides, the “neuroprotective activity in the PI assay” value in series [1] is recorded as “confirmed neuroprotective activity”. The “cytoplasmic pPKA, concentration response” value in series [3] is “concentration-dependent increase”.

Consider `C[C@]12CCC(=O)C=C1CC[C@@H]1[C@@H]2[C@@H](O)C[C@@]2(C)[C@H]1CC[C@]2(O)C(=O)CO` [Hydrocortisone], for which the “neuroprotective activity in the PI assay” value in series [1] is “confirmed neuroprotective activity”.

As for `CC(=O)Nc1nnc(S(N)(=O)=O)s1` [Acetazolamide], the “neuroprotective activity in the PI assay” value in series [1] was “did not protect”.

In the case of `COc1ccc(Cc2nccc3cc(OC)c(OC)cc23)cc1OC` [Papaverine hydrochloride], the “reduction in the level of protection” value in series [2] is 55%. Also, in series [1], the “neuroprotective activity in the PI assay” value is “confirmed neuroprotective activity”. The “cytoplasmic pPKA, concentration response” value in series [3] is on record as “less pronounced”.

For `CNC(=O)COC(=O)N1CCC(CCc2ccc(Cl)cc2)CC1` [SA 57], the “protection from mHTT-induced cytotoxicity in the screen” value in series [7] is “demonstrating protection”.

For the compound `O=C(O)c1nn(Cc2ccc(Cl)cc2Cl)c2ccccc12` [Lonidamine], the “neuroprotective activity in the PI assay” value in series [1] is on record as “confirmed neuroprotective activity”.

`CN1CCN2c3ccccc3Cc3ccccc3C2C1` (centres unmarked) [Mianserin hydrochloride]: the “reduction in the level of protection” value in series [2] amounted to 35%. In addition, the “neuroprotective activity in the PI assay” value in series [1] was “confirmed neuroprotective activity”. For the same compound, the “cytoplasmic pPKA, concentration response” value in series [3] is listed as “concentration-dependent increase”.

For `CCOc1ccc2nc(S(N)(=O)=O)sc2c1` [Ethoxzolamide], the “neuroprotective activity in the PI assay” value in series [1] is reported as “confirmed neuroprotective activity”.

Consider `Cc1cccc(C(=O)NCN2CCN(c3ccccc3C#N)CC2)c1.O=C(O)/C=C\C(=O)O` [PD 168,077 maleate], for which the “neuroprotective activity in the PI assay” value in series [1] is given as “confirmed neuroprotective activity”.

For `CN1CCN(c2ccc3ccccc3n2)CC1.O=C(O)/C=C\C(=O)O.O=C(O)/C=C\C(=O)O` [Quipazine, N-methyl-, dimaleate], in series [1], the “neuroprotective activity in the PI assay” value is on record as “confirmed neuroprotective activity”.

Regarding `CN1[C@@H]2CC[C@H]1CC(OC(=O)c1c[nH]c3ccccc13)C2.Cl` (some centres unmarked) [3-tropanyl-indole-3-carboxylate hydrochloride], the “neuroprotective activity in the PI assay” value in series [1] was “confirmed neuroprotective activity”.

With `Cc1cccc(CN2CCN(C(c3ccccc3)c3ccc(Cl)cc3)CC2)c1` (centres unmarked) [Meclizine], the “neuroprotective activity in the PI assay” value in series [1] was “confirmed neuroprotective activity”.
